Consider 31 compounds from patent US10023543B2 (CELGENE QUANTICEL RESEARCH, INC., priority 2014, dated 2018).

For the experiment, the system named is THP-1 (AML) cells. Briefly: LSD1 CD11b cellular assay (flow cytometry). In kind it is cell-based. Conditions: Homo sapiens, THP-1, 96 h; CD11b expressing cells, 4 days; read-out: THP-1 IC50.

Take `CCOc1ccc(-c2c(-c3ccc(C#N)c(F)c3)nc(N3CCC(N)CC3)n(C)c2=O)cn1` [Example 94, 4-[2-(4-aminopiperidin-1-yl)-5-(6-ethoxypyridin-3-yl)-1-methyl-6-oxopyrimidin-4-yl]-2-fluorobenzonitrile]: the IC50 is below 100 nM.
For `COc1ccc(-c2c(-c3ccc(C#N)c(F)c3)nc(NC3CCNCC3)n(C)c2=O)cc1` [Example 53, 2-fluoro-4-[5-(4-methoxy-phenyl)-1-methyl-6-oxo-2-(piperidin-4-ylamino)-1,6-dihydro-pyrimidin-4-yl]-benzonitrile], the IC50 was 100 to 1000 nM.
To `COc1ccc(-c2c(-c3ccc(C#N)c(F)c3)nc(N3CCC(N)CC3)n(CC(=O)O)c2=O)cc1` [Example 15, [2-(4-amino-piperidin-1-yl)-4-(4-cyano-3-fluoro-phenyl)-5-(4-methoxy-phenyl)-6-oxo-6H-pyrimidin-1-yl]-acetic acid] belongs 1000 to 10000 nM; to `COc1ccc(-c2c(-c3ccc(C#N)c(F)c3)nc(N3CC[C@H](N)C3)n(C)c2=O)cc1F` [Example 29, 4-[2-((3S)-3-amino-pyrrolidin-1-yl)-5-(3-fluoro-4-methoxy-phenyl)-1-methyl-6-oxo-1,6-dihydro-pyrimidin-4-yl]-2-fluoro-benzonitrile], 100 to 1000 nM.
Next, `CNC1CCN(c2nc(-c3ccc(C#N)c(F)c3)c(-c3ccc(OC)c(F)c3)c(=O)n2C)CC1` [Example 12, 2-fluoro-4-[5-(3-fluoro-4-methoxy-phenyl)-1-methyl-2-(4-methylamino-piperidin-1-yl)-6-oxo-1,6-dihydro-pyrimidin-4-yl]-benzonitrile]: below 100 nM; `COc1ccc(-c2c(-c3ccc(C#N)c(F)c3)nc(N3CCNCC3)n(C)c2=O)cc1F` [Example 47, 2-fluoro-4-[5-(3-fluoro-4-methoxy-phenyl)-1-methyl-6-oxo-2-piperazin-1-yl-1,6-dihydro-pyrimidin-4-yl]-benzonitrile]: 100 to 1000 nM; `COc1ccc(-c2c(-c3ccc(C#N)c(F)c3)nc(N3CCC[C@@H](N)C3)n(C)c2=O)cc1F` [Example 25, 4-[2-((3R)-3-aminopiperidyl)-5-(3-fluoro-4-methoxyphenyl)-1-methyl-6-oxohydropyrimidin-4-yl]-2-fluorobenzenecarbonitrile]: below 100 nM.
Regarding `COc1ncc(-c2c(-c3ccc(C#N)c(F)c3)nc(N3CCC(N)CC3)n(C)c2=O)cc1F` [Example 26, 4-[2-(4-aminopiperidyl)-5-(5-fluoro-6-methoxy(3-5,6-dihydropyridyl))-1-methyl-6-oxohydropyrimidin-4-yl]-2-fluorobenzenecarbonitrile], the IC50 is below 100 nM.
With `Cn1c(N2CCC(N)CC2)nc(-c2ccc(C#N)c(F)c2)c(-c2ccc3cc[nH]c3c2)c1=O` [Example 75, 4-[2-(4-amino-piperidin-1-yl)-5-(1H-indol-6-yl)-1-methyl-6-oxo-1,6-dihydro-pyrimidin-4-yl]-2-fluoro-benzonitrile], the IC50 was below 100 nM.
Next, `COc1ccc(-c2c(-c3ccc(C#N)c(F)c3)nc(N3CC(N)C3)n(C)c2=O)cc1` [Example 64, 4-[2-(3-amino-azetidin-1-yl)-5-(4-methoxy-phenyl)-1-methyl-6-oxo-1,6-dihydro-pyrimidin-4-yl]-2-fluoro-benzonitrile]: 100 to 1000 nM.
Consider `COc1ccc(-c2c(-c3ccc(C#N)c(F)c3)nc(N3CCC[C@@H](N)C3)n(C)c2=O)cc1` [Example 30, 4-[2-((3R)-3-aminopiperidyl)-5-(4-methoxyphenyl)-1-methyl-6-oxohydro-pyrimidin-4-yl]-2-fluorobenzenecarbonitrile], for which the half-maximal inhibitory concentration (IC50) is below 100 nM.
Next, `Cn1c(N2CCC(N)CC2)nc(-c2ccc(C#N)c(F)c2)c(-c2ccc(F)c(F)c2)c1=O` [Example 104, 4-[2-(4-aminopiperidin-1-yl)-5-(3,4-difluorophenyl)-1-methyl-6-oxopyrimidin-4-yl]-2-fluorobenzonitrile]: below 100 nM; `CNc1ccc(-c2c(-c3ccc(C#N)c(F)c3)nc(N3CCC(N)CC3)n(C)c2=O)cc1F` [Example 91, 4-[2-(4-aminopiperidin-1-yl)-5-[3-fluoro-4-(methylamino)phenyl]-1-methyl-6-oxopyrimidin-4-yl]-2-fluorobenzonitrile]: below 100 nM.
Next, `COc1c(F)cc(-c2c(-c3ccc(C#N)cc3)nc(N3CCC(N)CC3)n(C)c2=O)cc1F` [Example 38, 4-[2-(4-aminopiperidyl)-5-(3,5-difluoro-4-methoxyphenyl)-1-methyl-6-oxohydropyrimidin-4-yl]benzenecarbonitrile]: below 100 nM; `Cn1cc2cc(-c3c(-c4ccc(C#N)c(F)c4)nc(N4CCC(N)CC4)n(C)c3=O)ccc2n1` [Example 37, 4-[2-(4-aminopiperidyl)-1-methyl-5-(2-methyl(2H-indazol-5-yl))-6-oxohydropyrimidin-4-yl]-2-fruorobenzenecarbonitrile]: below 100 nM.
Next, `COc1ccc(-c2c(-c3ccc(C#N)c(F)c3)nc(NC[C@H]3CCNC3)n(C)c2=O)cc1` [Example 51, 2-fluoro-4-{5-(4-methoxy-phenyl)-1-methyl-6-oxo-2-[(3S)-(pyrrolidin-3-ylmethyl)-amino]-1,6-dihydro-pyrimidin-4-yl}-benzonitrile]: 100 to 1000 nM.
Regarding `COc1ccc(-c2c(-c3ccc(C#N)c(F)c3)nc(N3CCC(C)(N)CC3)n(C)c2=O)cc1F` [Example 32, 4-[2-(4-amino-4-methyl-piperidin-1-yl)-5-(3-fluoro-4-methoxy-phenyl)-1-methyl-6-oxo-1,6-dihydro-pyrimidin-4-yl]-2-fluoro-benzonitrile], the half-maximal inhibitory concentration (IC50) was below 100 nM.
To `Cn1c(N2CCC(N)CC2)nc(-c2ccc(C#N)c(F)c2)c(-c2ccc(N3CCCC3)nc2)c1=O` [Example 60, 4-[2-(4-amino-piperidin-1-yl)-1-methyl-6-oxo-5-(6-pyrrolidin-1-yl-pyridin-3-yl)-1,6-dihydro-pyrimidin-4-yl]-2-fluoro-benzonitrile] belongs below 100 nM.
Next, `Cc1ccc(-c2c(-c3ccc(C#N)c(F)c3)nc(N3CCC(N(C)C)CC3)n(C)c2=O)cn1` [Example 82, 4-[2-(4-dimethylamino-piperidin-1-yl)-1-methyl-5-(6-methyl-pyridin-3-yl)-6-oxo-1,6-dihydro-pyrimidin-4-yl]-2-fluoro-benzonitrile]: 100 to 1000 nM; `Cn1c(N2CCC(N)CC2)nc(-c2ccc(C#N)c(F)c2)c(-c2ccc(Cl)cc2)c1=O` [Example 106, 4-[2-(4-aminopiperidin-1-yl)-5-(4-chlorophenyl)-1-methyl-6-oxopyrimidin-4-yl]-2-fluorobenzonitrile]: below 100 nM.
To `CN(C)c1ncc(-c2c(-c3ccc(C#N)c(F)c3)nc(N3CCC(N)CC3)n(C)c2=O)cn1` [Example 49, 4-[2-(4-amino-piperidin-1-yl)-2′-dimethylamino-1-methyl-6-oxo-1,6-dihydro-[5,5′]bipyrimidinyl-4-yl]-2-fluoro-benzonitrile] belongs below 100 nM.
Consider `CNC1CCN(c2nc(-c3ccc(C#N)c(F)c3)c(-c3ccc4c(cnn4C)c3)c(=O)n2C)CC1` [Example 87, 2-fluoro-4-[1-methyl-2-[4-(methylamino)piperidin-1-yl]-5-(1-methylindazol-5-yl)-6-oxopyrimidin-4-yl]benzonitrile], for which the IC50 is below 100 nM.
To `COc1ccc(-c2c(-c3ccc(C#N)cc3)nc(NC[C@@H]3CCNC3)n(C)c2=O)cc1F` [Example 45, 4-{5-(3-fluoro-4-methoxy-phenyl)-1-methyl-6-oxo-2-[(3R)-(pyrrolidin-3-ylmethyl)-amino]-1,6-dihydro-pyrimidin-4-yl}-benzonitrile] belongs 100 to 1000 nM; to `CCOc1ccc(-c2c(-c3ccc(C#N)c(F)c3)nc(N3CCC(N)CC3)n(C)c2=O)cc1` [Example 95, 4-[2-(4-aminopiperidin-1-yl)-5-(4-ethoxyphenyl)-1-methyl-6-oxopyrimidin-4-yl]-2-fluorobenzonitrile], below 100 nM; to `Cn1c(N2CCC(N)CC2)nc(-c2ccc(C#N)c(F)c2)c(-c2ccc3ccn(C)c3c2)c1=O` [Example 76, 4-[2-(4-amino-piperidin-1-yl)-1-methyl-5-(1-methyl-1H-indol-6-yl)-6-oxo-1,6-dihydro-pyrimidin-4-yl]-2-fluoro-benzonitrile], below 100 nM.
Next, `Cn1c(N2CCC(N)CC2)nc(-c2ccc(C#N)c(F)c2)c(-c2ccc(N3CCOCC3)nc2)c1=O` [Example 68, 4-[2-(4-amino-piperidin-1-yl)-1-methyl-5-(6-morpholin-4-yl-pyridin-3-yl)-6-oxo-1,6-dihydro-pyrimidin-4-yl]-2-fluoro-benzonitrile]: below 100 nM; `COc1ccc(-c2c(-c3ccc(C#N)cc3)nc(N3CCCNCC3)n(C)c2=O)cn1` [Example 62]: 100 to 1000 nM.
To `COc1ccc(-c2c(-c3ccc(C#N)c(F)c3)nc(N3CCC(N(C)C)CC3)n(C)c2=O)cn1` [Example 92, 4-[2-[4-(dimethylamino)piperidin-1-yl]-5-(6-methoxypyridin-3-yl)-1-methyl-6-oxopyrimidin-4-yl]-2-fluorobenzonitrile] belongs below 100 nM; to `COc1ccc(-c2c(-c3ccc(C#N)cc3)nc(NC3CCNCC3)n(C)c2=O)cc1F` [Example 48, 4-[5-(3-fluoro-4-methoxy-phenyl)-1-methyl-6-oxo-2-(piperidin-4-ylamino)-1,6-dihydro-pyrimidin-4-yl]-benzonitrile], 100 to 1000 nM.
With `COc1ccc(-c2c(-c3ccc(C#N)c(F)c3)nc(N3CCC[C@H](N)C3)n(C)c2=O)cc1` [Example 31, 4-[2-((3S)-3-amino-piperidin-1-yl)-5-(4-methoxy-phenyl)-1-methyl-6-oxo-1,6-dihydro-pyrimidin-4-yl]-2-fluoro-benzonitrile], the IC50 is below 100 nM.
Turning to `CNC1CCN(c2nc(-c3ccc(C#N)c(F)c3)c(-c3ccc(OC)nc3)c(=O)n2C)CC1` [Example 58, 2-fluoro-4-[5-(6-methoxy-pyridin-3-yl)-1-methyl-2-(4-methylamino-piperidin-1-yl)-6-oxo-1,6-dihydro-pyrimidin-4-yl]-benzonitrile], the IC50 was below 100 nM.
